Data published in EP2292587A1, “PHARMACEUTICAL COMPOSITION FOR INHIBITING THE TRANSCRIPTION FACTOR INDUCIBLE BY HYPOXIA, MODULATORS OF PATHOLOGICAL PROCESSES OF ANGIOGENESIS, ONCOGENESIS, INFLAMMATION, APOPTOSIS, AND CELLULAR THERAPY” (Fundacion De La Comunidad Valenciana Centro De …, priority 2008, dated 2009).

Assays:
c-FOS = assay: selectivity luciferase assay, Hek 293-TRE-LUC; assay type: cell-based; details: 0-1 µM, 6 hours
Method: (§1) The selectivity assays with the active compound FM19G11 were performed in white 96-well plates using the recombinant strains Hek 293-TRE-LUC and Hek 293-CRE-LUC which represent the transcriptional activity of transcription factors of the AP-1 complex. The luciferase assay for measuring transcriptional activity was performed using the kit Bright-Glo™ Luciferase Assay System (Promega, Inc., Madison, WI), following the instructions supplied by the manufacturer and the Hek 293-TRE-LUC and Hek 293-CRE-LUC lines contain the response elements of transcription factors of the AP-1 complex, specifically of c-FOS and JUNB, respectively. The Hek 293-TRE-LUC and Hek 293-CRE-LUC lines were provided by Dr. Rosa Farrás.

JUNB = assay: selectivity luciferase assay, Hek 293-CRE-LUC; assay type: cell-based; details: 0-1 µM, 6 hours
Method: as §1

C17.2 = assay: toxicity in C17.2 neural stem cells; assay type: cell-based; details: Mus musculus
Method: C17.2 were cultured in an undifferentiated state using a high-glucose Dulbecco's modified medium (DMEM) supplemented with 10% fetal calf serum, 5% horse serum, 1% glutamine (2 mM), 1% penicillin/streptomycin/fungizone. The cells were seeded at 1500 cells/cm^2, both for normoxic conditions and for hypoxic conditions. The culture of cells in normoxia was carried out in an incubator with 20% O2, 5% CO2, 37°C and the standard percentage of humidity (94%). The conditions of low concentration of O2 were created by using a hypoxia chamber (Invivo2 400, Ruskinn Life Sciences), with the mixture of gases 1% O2, 5% CO2, and 94% N2 at 37°C. The cells were maintained under the normoxic and hypoxic conditions at different times 3, 6, 9, 24, 48 hours. They were subsequently collected and the proteins and the mRNA were extracted using a commercial kit, NucleoSpin RNA/protein (Macherey Nagel) according to the manufacturers' instructions. The concentrations of 19G11 used during the studies conducted are 125, 250 and 500 nM. The concentrations were used according to the results obtained after evaluating the toxicity of C17.2 due to the presence of the compound, since IC50 >1 µM.

[1] = tested on: Sox2, Oct4, Nanog, TGF-alpha, Notch1; assay: expression of undifferentiated state markers in epSPCs (sqPCR, Western blot); assay type: cell-based, rat
Method: The primary culture of adult spinal cord ependymal neural progenitors (epSPC) was performed according to the conditions already set forth in Example 35.1.
Detection of the transcriptional and transductional expression levels of genes responsible for maintaining the undifferentiated state, Sox2, Oct4, Nanog, TGF-alpha: Total RNA was isolated using the commercial kit RNAeasy (Qiagen) and following the manufacturer's instructions. 1 µg of total RNA of each sample was retrotranscribed using the commercial kit Reverse Transcription Reagent (Applied Biosystem). The semiquantitative polymerase chain reaction (sqPCR) was carried out using the primers detailed below, for the amplification of the messenger RNAs of Sox2, Oct4, Nanog, TGF-alpha and GAPDH. The sqPCR was developed in an Eppendorf thermal cycler in a final volume of 50 µl, using 1 U of Taq Polymerase, 40 ng of cDNA (equivalent amount of total RNA), and 300 nM of each primer. The program chosen for the amplification was: [95°C, 3 min] x1, [55°C, 30 sec, 72°C, 5 min, 95°C 30 sec] x 35 and 72°C 10 min. The expression levels were viewed in a 1% agarose gel in 1x TAE buffer stained with ethidium bromide. The changes of expression due to the loading difference were corrected by the differential expression of the GAPDH constitutive expression gene. The experiments were performed in triplicate (with cells from three different rats).
The levels of proteins of the undifferentiated state markers Sox2, Oct4, Nanog and Notch1 were determined by immunological analysis (Western Blot) following the methodology described in Example 35.1. The primary antibodies for the detection of Sox2, Oct4, Nanog and Notch1 were acquired from Abcam (UK) and the expression of beta-actin (antibody acquired in Sigma Aldrich Co., UK) served as a loading control.

HT29 = assay: Western blot of DNA damage response proteins in HT29; assay type: cell-based, human; details: 0.25 or 0.5 µM, 24 hours
Description: According to the results obtained by the Western blotting technique, FM19G11 triggers a DNA damage response (DDR) in human colon cancer cells (HT29).

HCT116/p53+/+ = assay: anchorage-independent growth in semisolid agar, HCT116/p53+/+; assay type: cell-based, human; details: 0.5 µM, 10 days, versus DMSO, p ≤ 0.033
Method: (§2) Anchorage-independent cell growth is a study which allows predicting the tumorigenicity of tumor cells in vivo. Anchorage-independent cell growth studies were performed for HT29, HCT116/p53^+/+ and HCT116/p53^-/- cells in semisolid agar which were monitored daily to determine the efficiency of the formation of colonies in the presence of carrier (DMSO) or FM19G11. To that end, the starting material was 75 x 10^3 cells suspended in semisolid agar, which were maintained until 10 days later. […] A reduction of the formation of colonies in the HCT116/p53^-/- cells is not observed. The growth of colonies was quantified in three independent experiments by means of counting colonies in the 4 x magnification optical field of an inverted optical microscope.

HCT116/p53-/- = assay: anchorage-independent growth in semisolid agar, HCT116/p53-/-; assay type: cell-based, human; details: 0.5 µM, 10 days, versus DMSO
Method: as §2

acetyltransferase p300 = target: T1, acetyltransferase p300 (Mus musculus, UniProt B2RWS6); assay: HAT Colorimetric Assay after anti-p300 immunoprecipitation, C17.2 cells; assay type: cell-based; details: regardless of the percentage of oxygen
T1 construct: endogenous in cells; host or cells: C17.2 mouse neural stem cells
T1 sequence (B2RWS6 whole entry): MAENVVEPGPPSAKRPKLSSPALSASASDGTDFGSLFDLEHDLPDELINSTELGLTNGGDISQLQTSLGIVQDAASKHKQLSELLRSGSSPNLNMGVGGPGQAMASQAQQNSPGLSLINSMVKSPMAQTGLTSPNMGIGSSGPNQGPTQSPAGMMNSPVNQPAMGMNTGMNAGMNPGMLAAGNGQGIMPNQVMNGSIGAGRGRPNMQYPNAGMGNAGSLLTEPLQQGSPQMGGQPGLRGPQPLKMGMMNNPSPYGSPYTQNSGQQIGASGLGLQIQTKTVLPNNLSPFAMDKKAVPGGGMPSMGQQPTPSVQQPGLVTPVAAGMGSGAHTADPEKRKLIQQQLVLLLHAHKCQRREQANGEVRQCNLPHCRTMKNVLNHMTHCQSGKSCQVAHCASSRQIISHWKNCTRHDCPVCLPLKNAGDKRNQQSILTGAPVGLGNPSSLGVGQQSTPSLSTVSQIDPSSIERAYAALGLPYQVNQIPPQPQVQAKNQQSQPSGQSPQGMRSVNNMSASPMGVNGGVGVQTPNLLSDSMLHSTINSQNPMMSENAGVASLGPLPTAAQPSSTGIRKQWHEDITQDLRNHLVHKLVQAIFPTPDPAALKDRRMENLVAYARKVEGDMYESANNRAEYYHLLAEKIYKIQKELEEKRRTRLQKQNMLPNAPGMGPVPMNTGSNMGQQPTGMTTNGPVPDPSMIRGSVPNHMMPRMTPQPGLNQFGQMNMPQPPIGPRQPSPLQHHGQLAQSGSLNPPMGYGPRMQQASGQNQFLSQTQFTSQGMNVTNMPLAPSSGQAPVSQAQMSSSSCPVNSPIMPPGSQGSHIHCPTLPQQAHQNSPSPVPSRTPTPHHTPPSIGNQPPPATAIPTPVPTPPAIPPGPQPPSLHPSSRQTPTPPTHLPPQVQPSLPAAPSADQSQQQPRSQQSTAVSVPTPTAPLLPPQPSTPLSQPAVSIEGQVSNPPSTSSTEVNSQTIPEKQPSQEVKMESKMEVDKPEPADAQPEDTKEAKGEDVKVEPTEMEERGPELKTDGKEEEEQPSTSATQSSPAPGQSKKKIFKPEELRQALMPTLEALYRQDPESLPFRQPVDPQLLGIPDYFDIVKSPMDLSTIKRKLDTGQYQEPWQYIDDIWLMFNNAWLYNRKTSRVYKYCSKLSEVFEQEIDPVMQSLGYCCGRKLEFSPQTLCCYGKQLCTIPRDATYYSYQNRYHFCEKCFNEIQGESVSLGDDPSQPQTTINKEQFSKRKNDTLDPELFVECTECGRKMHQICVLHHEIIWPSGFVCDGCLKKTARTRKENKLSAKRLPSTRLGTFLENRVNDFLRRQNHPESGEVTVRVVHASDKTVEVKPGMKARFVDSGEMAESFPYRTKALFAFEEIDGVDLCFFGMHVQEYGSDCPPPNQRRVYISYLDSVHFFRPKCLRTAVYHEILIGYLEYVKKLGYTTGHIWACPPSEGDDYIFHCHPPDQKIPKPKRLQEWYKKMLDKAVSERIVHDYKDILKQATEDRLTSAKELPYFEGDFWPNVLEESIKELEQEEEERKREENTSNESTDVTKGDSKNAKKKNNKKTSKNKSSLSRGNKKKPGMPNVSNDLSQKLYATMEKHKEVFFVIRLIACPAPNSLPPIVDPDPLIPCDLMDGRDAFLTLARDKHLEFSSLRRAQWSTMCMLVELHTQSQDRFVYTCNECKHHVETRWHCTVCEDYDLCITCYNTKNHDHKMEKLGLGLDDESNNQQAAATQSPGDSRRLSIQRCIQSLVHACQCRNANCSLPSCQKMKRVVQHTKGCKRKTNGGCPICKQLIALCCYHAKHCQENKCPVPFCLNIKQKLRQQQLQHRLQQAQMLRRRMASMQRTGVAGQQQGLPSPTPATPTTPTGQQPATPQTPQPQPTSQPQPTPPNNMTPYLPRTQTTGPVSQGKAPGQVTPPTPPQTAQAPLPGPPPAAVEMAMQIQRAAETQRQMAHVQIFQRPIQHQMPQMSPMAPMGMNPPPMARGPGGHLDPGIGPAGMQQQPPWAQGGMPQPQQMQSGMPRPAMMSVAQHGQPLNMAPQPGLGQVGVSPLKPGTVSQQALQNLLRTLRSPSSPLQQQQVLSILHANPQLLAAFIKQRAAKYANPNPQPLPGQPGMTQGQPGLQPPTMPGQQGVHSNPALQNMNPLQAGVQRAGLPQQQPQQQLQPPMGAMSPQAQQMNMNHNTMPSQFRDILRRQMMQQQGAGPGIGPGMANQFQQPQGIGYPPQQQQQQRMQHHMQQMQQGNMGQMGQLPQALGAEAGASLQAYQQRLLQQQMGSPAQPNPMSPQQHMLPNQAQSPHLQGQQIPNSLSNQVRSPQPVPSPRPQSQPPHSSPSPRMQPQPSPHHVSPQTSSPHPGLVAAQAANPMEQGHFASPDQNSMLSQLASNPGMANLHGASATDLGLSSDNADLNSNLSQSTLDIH
Method: Since FM19G11 was capable of affecting the degree of acetylation of histone H3 and therefore the conformation of chromatin, it was evaluated if FM19G11 favored the transfer of acetyl groups to histone H3 or, on the contrary, prevented histone H3 from being deacetylated. Both effects would cause an increase of the degree of acetylation of histone H3. Immunoprecipitation assays were performed with an antibody recognizing acetyltransferase p300 and then assays for measuring the acetyltransferase activity by means of using the kit "HAT Colorimetric Assay" (BioVision) were carried out. This method consists of detecting NADH since peptide acetylation causes the release of the free form of Coenzyme A, which serves as an essential coenzyme for producing NADH.
The protein extracts were previously immunoprecipitated with an anti-p300 antibody and the acetyltransferase activity measured by the detection of NADH. The evaluation of the histone deacetylase (HDAC) activity (Figure 34 B) was carried out with protein extracts of HeLa cells treated with different concentrations of FM19G11. As a positive control, a fixed concentration of TSA (1 µM) was included and extracts of untreated cells were used as a control. The experiments were carried out following the instructions of the Biomol kit for detecting histone deacetylase activity (HDAC Fluorimetric Cellular Activity Assay, Biomol, Cat. No. AK-503). […]

SMILES: Cc1ccc(C(=O)COC(=O)c2cccc(NC(=O)c3ccc([N+](=O)[O-])cc3[N+](=O)[O-])c2)cc1 [FM19G11, 2-oxo-2-(p-tolyl)ethyl 3-((2,4-dinitro)benzamido)benzoate]
- transcriptional levels of Hek 293-TRE-LUC (c-FOS): not affected in any case
- transcriptional levels of Hek 293-CRE-LUC (JUNB): not affected in any case
- IC50 (C17.2): > 1000 nM
- messenger RNA of Sox2 and Oct4 and their target genes Nanog and TGF-α ([1]; 500 nM, 48 hours, 1% O2): down-regulation
- expression of Sox2, Oct4, Nanog and Notch1 ([1]; 500 nM, 48 hours, normoxic (~20% O2)): significantly induces
- expression of both proteins, Sox2 and Oct4 ([1]; increasing concentrations, 1% O2): inhibits in a dose-dependent manner
- expression of the two isoforms of HIFα, p300, Sox2, Oct3/4 in ependymal cells ([1]; physical hypoxic conditions): decrease
- phosphorylation of DDR proteins (H2AX, MLH1, MSH6, BRCA1, ATM, ATR, CHK1, CHK2, p53) (HT29): efficiently increased the phosphorylation
- growth of colonies in semisolid agar (HCT116/p53+/+): significant decrease
- reduction of the formation of colonies in semisolid agar (HCT116/p53-/-): not observed
- acetyltransferase activity of the immunoprecipitated fraction (acetyltransferase p300): increase of the acetyltransferase activity
